One data set has as its system C6 glioma. Put plainly: C6 glioma implanted in rat striatum, tumor growth followed by MRI. Type of data set: in vivo. To be noted: 0.2M oxaloacetate in drinking water from day 7, MRI 10 days later, in average. As to the method:
Male SPD&OLD rats weighing 260-280 g were used and placed in individual cages. All experiments were conducted according to the guidelines of the institutional animal care and use committee of the Weizmann Institute of Science, Rehovot, Israel.
Rat C6 glioma cells were grown in DMEM medium supplemented with 10% FCS. 10^7 cells were plated on 100×20 mm dishes and grown to 80% confluence for two days, passaged at a dilution of 1:10 after 1-2 min exposure to 0.25% trypsin and plated on 7 plates 60×15 mm. The cells were grown to 80% confluence for two additional days. The cells were then trypsynized as above, washed once with sterile PBS and centrifuged for 15 min at 1200 rpm. Prior to centrifugation, the cells were counted in a hemocytometer. Following centrifugation, the medium was removed and the cells were diluted in sterile PBS to a final concentration […] was injected immediately intracranially. For that purpose, the rats were anesthetized with 1.5% Halothane and placed in a stereotactic apparatus. […]
Experiments on live animals were conducted on a Bio spec Avance™ system (Bruker Biospin, Ettlingen, Germany) with a 4.7 T 30-cm horizontal bore magnet. […] The volume of the tumor was assessed using the Surdriver program.
After establishing that oxaloacetate has no effect on glioma growth when grown under in vitro conditions, the effect of same in vivo was determined. […]

A short description of data set [1]: Stability of oxaloacetate solutions. It is filed as physicochemical. To be noted: cell culture medium. As to the method: To test the effect of oxaloacetate (OA) on glioma cells in vitro, C6 glioma cells were incubated with 1 mM oxaloacetate. Since oxaloacetate solutions are unstable, the cell culture medium was changed every day to allow the cells to be daily exposed to a fresh oxaloacetate solution.

Molecules are shown by their SMILES.

For the compound `O=C(O)CC(=O)C(=O)O` [oxaloacetate], the “Tumor spread, less than that of untreated animals that received drinking water only” value in the data set on C6 glioma is “at least 10 folds”. In addition, in data set [1], the stability of solutions entry is “unstable”.

The values above are taken from patent publication US10159717B2, “Methods of treating cancer of the central nervous system” (Yeda Research and Development Co. Ltd., priority 2008, dated 2018).
